We go through 18 compounds from patent US8569302B2, “Inhibitors of flaviviridae viruses” (Gilead Sciences, Inc., priority 2009, dated 2013).

This experiment concerns human hepatoma Huh-7 cell line harboring a HCV replicon. The experiment can be described thus: HCV replicon assay (inhibition of viral replication, luciferase readout). The following applies: Hepatitis C virus, 72 h, Huh-7 HCV replicon cells, 3 days incubation. It counts as cell-based. The gist of the method:
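Read-outs: luciferase luminescence for replication inhibition, corrected by ITMN-191 (100% inhibition) wells, and calcein AM fluorescence for cytotoxicity. Cells were treated for 3 days at 37 °C with ten 3-fold compound dilutions in 0.44% final DMSO. Percent inhibition relative to DMSO was fitted with a Hill equation to give EC50 and CC50.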
In general terms: Replicon systems follow genome replication, usually without infectious particles.
Compound `CC(C)(C)C#Cc1cc(N(C(=O)[C@H]2CC[C@H](C)CC2)[C@H]2CC[C@H](Oc3nc(CN4CCCC4)ns3)CC2)c(C(=O)O)s1` [Compound 161, 5-(3,3-Dimethylbut-1-ynyl)-3-(4-methyl-N-(4-(3-(pyrrolidin-1-ylmethyl)-1,2,4-thiadiazol-5-yloxy)cyclohexyl)cyclohexanecarboxamido)thiophene-2-carboxylic acid] yielded an inhibition at 2 µM of 99.9%.
On to `CC1CCC(C(=O)N(c2cc(C#CC(C)(C)C)sc2C(=O)O)[C@H]2CC[C@H](Oc3cnccc3CN(C)C)CC2)CC1` (stereo partly drawn) [Compound 198, 3-[[-4-(4-dimethylaminomethyl-pyridin-3-yloxy)-cyclohexyl]-(4-methyl-cyclohexanecarbonyl)-amino]-5-(3,3-dimethyl-but-1-ynyl)-thiophene-2-carboxylic acid], for which at 2 µM the inhibition was 99.9%.
In turn, `CC1=CCC(C(=O)N(c2cc(C#CC(C)(C)C)sc2C(=O)O)[C@H]2CC[C@H](O[C@H]3CCOC3)CC2)[C@@H](C)C1` (stereo partly drawn) [Compound 301, 5-(3,3-dimethyl-but-1-ynyl)-3-{(4,6S-dimethyl-cyclohex-3-enecarbonyl)-[4-(tetrahydro-furan-3S-yloxy)-trans-cyclohexyl]-amino}-thiophene-2-carboxylic acid] had an inhibition at 2 µM of 99.8%.
On to `C[C@@H]1CC[C@@H](C(=O)N(c2cc(C#CC(C)(C)C)sc2C(=O)O)[C@H]2CC[C@@H](OC3CCOC3)CC2)[C@@H](O)C1` (single isomer, unassigned) [Compound 228], for which testing at 2 µM gave an inhibition of 99.9%.
Consider `CC(C)(C)C#Cc1cc(N(C(=O)[C@H]2CC[C@H](C)CC2)[C@H]2CC[C@H](Oc3nccs3)CC2)c(C(=O)O)s1` [Compound 15, 5-(3,3-Dimethyl-but-1-ynyl)-3-{(trans-4-methyl-cyclohexanecarbonyl)-[trans-4-(thiazol-2-yloxy)-cyclohexyl]-amino}-thiophene-2-carboxylic acid], for which the inhibition at 2 µM came to 99.6%.
`CCn1ccnc1S[C@H]1CC[C@H](N(c2cc(C#CC(C)(C)C)sc2C(=O)O)C(=O)[C@H]2CC[C@H](C)CC2)CC1` [Compound 89, 5-(3,3-Dimethylbut-1-ynyl)-3-(N-(4-(1-ethyl-1H-imidazol-2-ylthio)cyclohexyl)-4-methylcyclohexanecarboxamido)thiophene-2-carboxylic acid] had an inhibition at 2 µM of 99.4%.
The compound `CC(C)(C)C#Cc1cc(N(C(=O)[C@H]2CC[C@H](C)CC2)[C@H]2CC[C@H](Oc3cccc(S(C)(=O)=O)n3)CC2)c(C(=O)O)s1` [Compound 6, 5-(3,3-Dimethyl-but-1-ynyl)-3-[[trans-4-(6-methanesulfonyl-pyridin-2-yloxy)-cyclohexyl]-(trans-4-methyl-cyclohexanecarbonyl)-amino]-thiophene-2-carboxylic acid] registered an inhibition at 2 µM of 99.9%.
In turn, `CC(C)(C)C#Cc1cc(N(C(=O)[C@H]2CC[C@H](C)CC2)C2CCC(O[C@@H]3CO[C@H]4OCC[C@H]43)CC2)c(C(=O)O)s1` (stereo partly drawn) [Compound 221, 5-(3,3-dimethylbut-1-ynyl)-3-((1r,4R)-4-methyl-N-(4-((3S,3aS,6aR)-tetrahydro-2H-furo[2,3-b]furan-3-yloxy)cyclohexyl)cyclohexanecarboxamido)thiophene-2-carboxylic acid] returned an inhibition at 2 µM of 100%.
`C[C@@H](CCOc1cccnc1)N(c1cc(C#CC(C)(C)C)sc1C(=O)O)C(=O)[C@H]1CC[C@H](C)CC1` [Compound 58] showed an inhibition at 2 µM of 99.9%.
The value for `CC1=CC[C@@H](C(=O)N(c2cc(C#CC(C)(C)C)sc2C(=O)O)[C@H]2CC[C@H](Oc3cc(CN(C)C)ccn3)CC2)CC1` [Compound 337, 3-[[4-(4-Dimethylaminomethyl-pyridin-2-yloxy)-trans-cyclohexyl]-(4-methyl-cyclohex-3-enecarbonyl)-amino]-5-(3,3-dimethyl-but-1-ynyl)-thiophene-2-carboxylic acid] was 100%.
For `CC(C)(C)C#Cc1cc(N(C(=O)[C@H]2CC[C@H](C)CC2)[C@H]2CC[C@@H](Oc3cccnc3)CC2)c(C(=O)O)s1` [Compound 180, 5-(3,3-Dimethylbut-1-ynyl)-3-(4-methyl-N-(4-(pyridin-3-yloxy)cyclohexyl)cyclohexanecarboxamido)thiophene-2-carboxylic acid], testing at 2 µM gave an inhibition of 99.6%.
`C[C@@H](CCOc1cncnc1)N(c1cc(C#CC(C)(C)C)sc1C(=O)O)C(=O)[C@H]1CC[C@H](C)CC1` [Compound 143, 5-(3,3-dimethyl-but-1-ynyl)-3-{(trans-4-methyl-cyclohexanecarbonyl)-[1-(S)-methyl-3-(pyrimidin-5-yloxy)-propyl]-amino}-thiophene-2-carboxylic acid] registered an inhibition at 2 µM of 100%.
The same measure for `CC(C)(C)C#Cc1cc(N(C(=O)[C@H]2CC[C@H](C)CC2)[C@H]2C[C@@H](Oc3cccnc3)C2)c(C(=O)O)s1` [Compound 20, 5-(3,3-Dimethyl-but-1-ynyl)-3-{(trans-4-methyl-cyclohexanecarbonyl)-[cis-3-(pyridin-3-yloxy)-cyclobutyl]-amino}-thiophene-2-carboxylic acid]: 99.8%; for `CC1CCC(C(=O)N(c2cc(C#CC(C)(C)C)sc2C(=O)O)[C@H]2CC[C@H](Oc3cc(CN(C)CCO)ccn3)CC2)CC1` (stereo partly drawn) [Compound 191, 3-[[-4-[4-{[(2-hydroxy-ethyl)-methyl-amino]-1-ylmethyl}-pyridin-2-yloxy]-cyclohexyl]-(4-methyl-cyclohexanecarbonyl)-amino]-5-(3,3-Dimethyl-but-1-ynyl)-thiophene-2-carboxylic acid]: 100%; for `Cc1nnc(S[C@H]2CC[C@H](N(c3cc(C#CC(C)(C)C)sc3C(=O)O)C(=O)[C@H]3CC[C@H](C)CC3)CC2)s1` [Compound 102, 5-(3,3-Dimethylbut-1-ynyl)-3-(4-methyl-N-(4-(5-methyl-1,3,4-thiadiazol-2-ylthio)cyclohexyl)cyclohexanecarboxamido)thiophene-2-carboxylic acid]: 99.9%.
As for `Cc1nc(S(=O)(=O)N2CC[C@H](N(c3cc(C#CC(C)(C)C)sc3C(=O)O)C(=O)[C@H]3CC[C@H](C)CC3)C2)cn1C` [Compound 212, 5-(3,3-Dimethyl-but-1-ynyl)-3-[[1-(1,2-dimethyl-1H-imidazole-4-sulfonyl)-pyrrolidin-3-yl]-(4-methyl-cyclohexanecarbonyl)-amino]-thiophene-2-carboxylic acid], the inhibition at 2 µM stood at 99.3%.
`CCc1cc(O[C@H]2CC[C@H](N(C(=O)C3CCC(C)CC3)c3cc(C#CC(C)(C)C)sc3C(=O)O)CC2)cc(CC)n1` (stereo partly drawn) [Compound 26, 3-[[4-(2,6-diethyl-pyridin-4-yloxy)-cyclohexyl]-(4-methyl-cyclohexanecarbonyl)-amino]-5-(3,3-Dimethyl-but-1-ynyl)-thiophene-2-carboxylic acid]: the inhibition at 2 µM is 99.8%.
The value for `CC(C)(C)C#Cc1cc(N(C(=O)[C@H]2CC[C@H](C)CC2)[C@H]2CC[C@H](O[C@H]3CCNC3)CC2)c(C(=O)O)s1` [Compound 226, 5-(3,3-dimethylbut-1-ynyl)-3-(4-methyl-N-(4-((S)-pyrrolidin-3-yloxy)cyclohexyl)cyclohexanecarboxamido)thiophene-2-carboxylic acid] was 99.9%.

A word on the inhibition: it is the drop in the measured response relative to a control, in per cent. Low readings indicate little suppression, high ones strong suppression.
